# Measured values taken from patent US4707487A, “(4-imidazolyl)piperidines, the preparation thereof and their application in therapy” (Institut National de la Sante et de la Recherche Medicale …, priority 1985, dated 1987).
# Experiments:
# [1] = tested on: rate of renewal of histamine in the synaptosomal fraction (P2) of rat cerebral cortex; test: Effects of H3 antagonists on the rate of renewal of cerebral histamine (depletion after synthesis blocking with α-FMH); assay type: in vivo, rat (male); set-up: Depletion by α-FMH: unit not given beside the values
# Method: III. EFFECTS OF H3 A[…] THE RATE OF RENEWAL OF CEREBRAL HISTAMINE
# Male rats weighing from 80 to 100 g simultaneously receive intraperitoneally α-fluoromethyl histidine and the compound to be tested, each at a dose of 20 mg/kg. One hour later, the animals are sacrificed and the cerebral cortex rapidly removed and homogenized in 10 volumes of 0.32 M sucrose. The homogenate thereby obtained is subjected to two successive centrifugations, the first at 10^4 g.min and second at 2×10^5 g.min to sediment the fraction enriched in synaptosomes (Whittaker, Michaelson and Kirkland, Biochem. J., 1967, 90, 293-305). After resuspension of this fraction in 10 volumes of 20 mM phosphate (K2 /K) buffer, PH 7.8, and treatment with ultrasound, an aliquot portion is frozen for subsequent assay of histidine decarboxylase activity (Baudry, Martres and Schwartz, J. Neurochem., 21, 1301-1309, 1973), and another portion is heated for 10 minutes at 95° C. and then centrifuged at 10^4 g.min. The endogenous histamine is determined in the supernatant by a radioenzymatic assay, which enables the histamine to be converted to tritiated N^w methylhistamine by means of an enzyme purified from rat kidney, histamine N-methyltransferase, and a tritiated methyl radical donor, S-adenosylmethionine. The N^w -methylhistamine thereby formed is selectively extracted in an alkaline medium into chloroform, before measurement of the tritiated product by liquid scintillation (Taylor and Snyder, J. Pharmacol. Exp. Ther., 137, 619-633, 1971).
# In the controls, these rates correspond to 15 ng/g/h, compared with approximately 30 ng/g/h after treatment with an H3 -receptor antagonist (Table 3).
# [2] = target: T1, H3 self-receptors of rat brain (Rattus norvegicus, UniProt Q9QYN8); test: cell-based
# Excerpt: (§1) The method described by Arrang et al., (Nature 1983, 302: 838-837) is used on sections (0.3 mm thick) of cerebral cortex of male Wistar rats (180-200 g) (IFFA-CREDO, France).
# [3] = tested on: rate of renewal of histamine in the synaptosomal fraction (P2) of rat cerebral cortex; test: Effects of H3 antagonists on the rate of renewal of cerebral histamine (depletion after synthesis blocking with α-FMH); assay type: in vivo, rat (male); set-up: Depletion by α-FMH: unit not given beside the values; remark: listed apart in the source
# [4] = Acute toxicity: mortality in mice after a single administration of increasing doses; settings: mouse, in vivo, after one hour
# Method: The determination of mortality in mice is observed folowing a single intravenous administration of increasing doses of compounds to be tested.
# The L.D.50 for all the compounds studied is […] 100 mg/kg […]. For example, that for the derivative No. 1 is 100 mg/kg after one hour.
# [5] = target: T1, H3 self-receptors of rat brain; test: Antagonism of histamine stimulation of the H3 receptors controlling the release of (3H)histamine induced by depolarization of sections of rat brain
# Excerpt: as §1
# [6] = α-FMH 20 mg/kg + test compound 20 mg/kg
# [7] = α-FMH 20 mg/kg + test compound 20 mg/kg, * p < 0.01 with respect to α-FMH alone
# [8] = α-FMH 20 mg/kg + test compound 20 mg/kg, where marked *** p < 0.05 with respect to α-FMH
# [9] = α-FMH 20 mg/kg + test compound 2 mg/kg
# [10] = read-out: Apparent dissociation constant (Ki) as antagonist of histamine on the H3 self-receptors of rat brain
# [11] = α-FMH alone 20 mg/kg, i.p., 1 h, rat cerebral cortex
# T1 sequence (Q9QYN8 whole entry): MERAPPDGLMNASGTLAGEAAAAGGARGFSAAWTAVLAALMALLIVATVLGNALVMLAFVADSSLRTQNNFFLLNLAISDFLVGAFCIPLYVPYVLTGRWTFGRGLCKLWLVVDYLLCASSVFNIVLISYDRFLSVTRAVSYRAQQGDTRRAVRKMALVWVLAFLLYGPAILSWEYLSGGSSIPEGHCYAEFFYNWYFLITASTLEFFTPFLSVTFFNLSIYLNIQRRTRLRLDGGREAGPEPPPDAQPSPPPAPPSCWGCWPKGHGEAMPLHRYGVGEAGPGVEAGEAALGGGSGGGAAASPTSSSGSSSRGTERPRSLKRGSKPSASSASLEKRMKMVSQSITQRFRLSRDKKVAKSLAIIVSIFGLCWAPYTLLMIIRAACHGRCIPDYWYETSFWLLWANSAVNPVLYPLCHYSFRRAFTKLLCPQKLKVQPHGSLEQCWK
structure (smiles),measurement,setting,value
S=C(NC1CCCCC1)N1CCC(c2c[nH]cn2)CC1 [Example 1],"Depletion by α-FMH, change (in brackets)",[1]; [6],+74%
same,Histamine (level in the synaptosomal fraction P2),[1]; [7],26.4 ± 1.4
same,Depletion by α-FMH,[1]; [8],25.2 ± 3.3
same,Ki,[2],5 nM
same,histamine level in the synaptosomal fraction,[3]; administered alone at a dose of 20 mg/kg,significant fall in the histamine level in the synaptosomal fraction
same,Depletion by α-FMH,"[3]; test compound alone 20 mg/kg, no α-FMH",12.3 ± 3.7
same,Histamine (level in the synaptosomal fraction P2),"[3]; test compound alone 20 mg/kg, no α-FMH, ** p < 0.03 with the untreated animals",39.3 ± 2.1
same,Depletion by α-FMH,[3]; [9],28.4 ± 4.0
same,"Depletion by α-FMH, change (in brackets)",[3]; [9],+96%
same,Histamine (level in the synaptosomal fraction P2),"[3]; α-FMH 20 mg/kg + test compound 2 mg/kg, * p < 0.01 with respect to α-FMH alone",23.2 ± 2.7
same,LD50 at 1 h,[4],100 mg/kg
O=C(NC1CCCCC1)N1CCC(c2cn(C(=O)NC3CCCCC3)cn2)CC1 [Example 2],Ki,[5],26 nM
O=C(NC1CCCCC1)N1CCC(c2c[nH]cn2)CC1 [Example 3],"Depletion by α-FMH, change (in brackets)",[1]; [6],+84%
same,Histamine (level in the synaptosomal fraction P2),[1]; [7],24.9 ± 1.2
same,Depletion by α-FMH,[1]; [8],26.7 ± 3.2
same,Ki,[5],41 nM
O=C(c1ccc(N2CCC(c3c[nH]cn3)CC2)cc1)C1CC1 [Example 4],Ki,[5],37 nM
S=C(NC12CC3CC(CC(C3)C1)C2)N1CCC(c2c[nH]cn2)CC1 [Example 7],Ki,[2],30 nM
O=C(Nc1ccccc1)N1CCC(c2c[nH]cn2)CC1 [Example 9],Ki,[2],170 nM
O=C(Nc1cccc(F)c1)N1CCC(c2c[nH]cn2)CC1 [Example 10],Ki,[2],23 nM
Cc1cccc(NC(=O)N2CCC(c3c[nH]cn3)CC2)c1 [Example 11],Ki,[2],52 nM
Cc1cccc(NC(=O)N2CCC(c3cn(C(=O)Nc4cccc(C)c4)cn3)CC2)c1 [Example 16],Ki,[2],84 nM
CC(NC(=O)N1CCC(c2cn(C(=O)NC(C)c3ccccc3)cn2)CC1)c1ccccc1 (stereo not shown) [Example 20],Ki,[2],22 nM
Cc1[nH]cnc1C1CCN(CCCn2c(=O)[nH]c3ccccc32)CC1 [Example 39],Ki,[2],500 nM
c1ccc(OCCN2CCC(c3c[nH]cn3)CC2)cc1 [Example 40],Ki,[5],67 nM
CC(NC(=O)N1CCC(c2c[nH]cn2)CC1)c1ccccc1 (stereo not shown) [Example 56],Ki,[2],10 nM
CC(NC(=N)N1CCC(c2c[nH]cn2)CC1)C1CC1 (stereo not shown) [Example 57],Ki,[5]; [10],12 nM
S=C(NC1CCCCC1)N1CCCC(c2c[nH]cn2)C1 (stereo not shown) [Example 58],Ki,[5]; [10],40 nM
"NCCc1c[nH]cn1 [histamine, reference compound]",inhibition at 1 µM,[5]; read-out: inhibition of (3H)histamine release by exogenous histamine,~60%
"N[C@@](CF)(Cc1c[nH]cn1)C(=O)O [α-FMH, α-fluoromethylhistidine, reference compound]",Depletion by α-FMH,[1]; [11],14.5 ± 4.0
same,Histamine (level in the synaptosomal fraction P2),[1]; [11],37.1 ± 2.7
